We go through five molecules from US7897645B2, “Herpesvirus-derived therapeutic agent for pain” (Taiho Pharmaceutical Co., Ltd., priority 2005, dated 2011).

Test [1] has as its system post herpetic neuralgia. Put plainly: Visual Analogue Scale (VAS) evaluation of pain in herpes zoster / post herpetic neuralgia patients (case reports). The format is in vivo, human. The conditions noted are these: for VAS evaluation of pain: mecobalamin 1500 μg/day and sodium loxoprofen 180 mg/day oral together, after 2 weeks. How it is done:
The present invention will be described below in more detail with reference to examples and test examples. However, the invention is not limited by these examples. The sharp pain in examples was evaluated by the Visual Analogue Scale evaluation (hereinafter abbreviated to “VAS evaluation”), in which the grade of pain of each patient is expressed by himself or herself on a 100 mm straight line. In VAS evaluation, the highest score is 10 points (100 mm), and the point becomes smaller according to the decrease of the pain. (refer to Anesth Analog 1993, 77, 1041-1047 etc.)

Test [2] relates to post herpetic neuralgia. Put plainly: Clinical course of zoster-associated pain in patients, in words (case reports). The format is in vivo, human. The conditions noted are these: for effect on continued pain after herpes zoster: Example 6: person, diclofenac sodium suppository 1 to 2 times per day in addition to morphine hydrochloride 30 mg/day. As for the experimental part:
A person. They were diagnosed as right face herpes zoster. Anti-virus agent was administered by drops for 5 days. Since dull pain remained at the same region thereafter, oral administration of mecobalamin of 1500 μg/day and sodium loxoprofen of 180 mg/day was started after the consultation. After administration for 2 weeks, VAS evaluation of pain dropped to 1 point, and the administration of sodium loxoprofen stopped with administration of mecobalamin maintained. Mecobalamin was further administered, and although VAS evaluations were 1 to 3 points for about 3 months, sense of incongruity and spasmodic sharp pain of neuralgia after herpes zoster continued, and therefore oral administration of a 100 mg capsule of IPD 3 times per day was started in the same manner as in Example 1 with administration of mecobalamin maintained. After 1 week of the administration of suplatast tosylate, the post herpetic neuralgia disappeared, and VAS evaluation became 0 point. […] Then administration was stopped.
A person. Painful rashes appeared from right chest to the back, and they were diagnosed as herpes zoster. Anti-virus agent was administered by dropping for 1 week, but the pain continued. Diclofenac sodium suppository was used by 1 to 2 times per day in addition to administration of morphine hydrochloride 30 mg/day, but both of them were no effect, and further nerve block treatment was also no effect. After 6 months of the consultation (7 points at VAS evaluation), oral administration of a 100 mg capsule of IPD 3 times per day was started in the same manner as in Example 1, the post herpetic neuralgia decreased to 5 points at VAS evaluation by the treatment for 3 weeks, although the administration of morphine was invalid.

Consider `C/C1=C2/[N-][C@H]([C@H](CC(N)=O)[C@@]2(C)CCC(=O)NC[C@@H](C)OP(=O)([O-])O[C@H]2[C@@H](O)[C@@H](n3cnc4cc(C)c(C)cc43)O[C@@H]2CO)[C@]2(C)N=C(/C(C)=C3N=C(/C=C4N=C1[C@@H](CCC(N)=O)C\4(C)C)[C@@H](CCC(N)=O)[C@]\3(C)CC(N)=O)[C@@H](CCC(N)=O)[C@]2(C)CC(N)=O.[CH3-].[Co+3]` [mecobalamin], for which the VAS evaluation is 5 points in test [1] (Example 1: person, mecobalamin 1500 μg/day oral continued, neuralgia not changed for 3 years after consultation); 7 points in test [1] (Example 2: person, mecobalamin 1500 μg/day continued, PHN did not change for 8 months after consultation); 0.5 to 1 point in test [1] (Example 4: person, mecobalamin 1500 μg/day for 1.5 months, 5 points before). In addition, in test [1] (Example 3: person), the “VAS evaluation of pain” value came out at 1 point. In test [1] (Example 3: person, mecobalamin alone further administered, for about 3 months), this molecule registered a VAS evaluations of 1 to 3 points.
With `CN1CC[C@]23c4c5ccc(O)c4O[C@H]2[C@@H](O)C=C[C@H]3[C@H]1C5.Cl` [morphine hydrochloride], in test [2], the “effect on continued pain after herpes zoster” value is given as “no effect”.
With `CC(C(=O)[O-])c1ccc(CC2CCCC2=O)cc1.[Na+]` (stereo not shown) [sodium loxoprofen], the “VAS evaluation of pain” value in test [1] (Example 3: person) is listed as 1 point.
With `O=C(O)Cc1ccccc1Nc1c(Cl)cccc1Cl` [Diclofenac sodium], in test [2], the “effect on continued pain after herpes zoster” value is reported as “no effect”.
Turning to `CCOCC(O)COc1ccc(NC(=O)CC[S+](C)C)cc1.Cc1ccc(S(=O)(=O)[O-])cc1` (racemic) [suplatast tosylate, (±)-[2-[4-(3-ethoxy-2-hydroxypropoxy)phenylcarbamoyl]ethyl]dimethylsulfonium p-toluenesulfonate], the VAS evaluation is 0 point in test [1] (Example 1: person, PHN, 100 mg capsule of IPD 3 times per day oral, after 3 days, 5 points before); 2 points in test [1] (Example 2: person, PHN, 100 mg capsule of IPD 3 times per day oral, after 1.5 months, 7 points before); 0 point in test [1] (Example 3: person, PHN, 100 mg capsule of IPD 3 times per day oral, mecobalamin maintained, after 1 week, 1 to 3 points before); 0.1 to 0.2 point in test [1] (Example 4: person, PHN, 100 mg capsule of IPD 3 times per day oral, after 1 month, 0.5 to 1 point before); 0.7 point in test [1] (Example 5: person, PHN, 100 mg capsule of IPD 3 times per day oral, by continuation of the administration); 1 point in test [1] (Example 5: person, PHN, 100 mg capsule of IPD 3 times per day oral, first decrease, 5 points before). For the same molecule, in test [1] (Example 6: person, PHN, 100 mg capsule of IPD 3 times per day oral, treatment for 3 weeks, 7 points before), the VAS evaluation worked out at 5 points. The “symptoms on continued administration” value in test [2] (Example 3: person, oral suplatast tosylate and mecobalamin continued for further about 1 month) is on record as “no symptom was observed”.
